Assay results as given in patent US20100322928A1, “METHODS OF DIAGNOSING, MONITORING TREATMENT AND TREATING SYSTEMIC LUPUS ERYTHEMATOSUS (SLE)” (Yeda Research and Development Co., Ltd., priority 2007, published 2010).
“Also recorded” adds a separate entry of the source. Marks after values point to notes of the source that are not given here.

How the values were obtained:
[1] = test system: (NZB×NZW)F1 mice with established SLE; experiment: ELISA for dsDNA-specific antibodies in sera of treated SLE-afflicted mice; assay type: in vivo; settings: bled after termination of treatment, s.c. once a week for 10 weeks
Method: (§1) Treatment of (NZB×NZW)F1 mice with edratide. Female mice aged 6-7 months, with established SLE, were divided into groups (8-10 mice per group) and injected subcutaneously (s.c.) with edratide (25-50 μg) or vehicle only (Captisol®) once a week for 10 weeks. Proteinuria and anti-double stranded DNA (dsDNA) autoantibodies were monitored throughout this period.
Enzyme-linked immunosorbent assay (ELISA) for the detection of dsDNA-specific antibodies. Anti-dsDNA-specific antibodies were determined using lambda phage dsDNA as previously described (5).
(§2) Treatment with edratide ameliorates disease manifestations in (NZB×NZW)F1 mice with established SLE. SLE-afflicted female mice, aged 6-7 months, were treated with 10 weekly s.c. injections of edratide or vehicle (Captisol®) and followed for disease manifestations. One week after the treatment ended the mice were killed and their kidneys were evaluated for immune-complex deposits. The results of a representative experiment are presented in Table 1 below, which summarizes some clinical manifestations of the experimental mice.

[2] = test system: (NZB×NZW)F1 mice with established SLE; experiment: Proteinuria, semi-quantitative Albustix test; assay type: in vivo; settings: at the end of the experiment; s.c. once a week for 10 weeks
Method: as §1
Proteinuria. Proteinuria was measured by a standard semi-quantitative test, using an Albustix kit (Bayer Diagnostics, Newbury, UK).
as §2

[3] = test system: (NZB×NZW)F1 mice with established SLE; experiment: Immunohistology of kidney sections for immune-complex deposits; assay type: in vivo; settings: graded 0 none, 1 low, 2 moderate, 3 high intensity, s.c. once a week for 10 weeks
Method: as §1
Immunohistology. For detection of immune-complex deposits, frozen kidney sections (6 μm) were air-dried and fixed in acetone. Sections were incubated with FITC-conjugated goat anti-mouse IgG (gamma-chain specific; Jackson ImmunoResearch Laboratories, Avondale, Pa.) for 30 minutes and were extensively washed with PBS. The intensity of immune-complex deposits was graded on a […]: 0, no deposits; 1, low-intensity deposits; 2, moderate-intensity deposits; 3, high-intensity deposits.
as §2

[4] = test system: splenocytes of SLE-afflicted (NZB×NZW)F1 mice; experiment: Affymetrix microarray of RNA from splenocytes of treated mice; assay type: in vivo
Excerpt: Preparation of RNA. Using the RNA/DNA/protein isolation reagent (TRI Reagent®; Molecular Research Center, Cincinnati, Ohio), total RNA was isolated from spleen cells that were pooled (n=2-4 mice) from each experimental group of (NZB×NZW)F1 mice.
Microarray and statistics. RNA samples were hybridized to the mouse genome AffymetrixGeneChip® 430A2 (Affymetrix, Santa Clara, Calif.) array. R packages were used from the Bioconductor project (23). Initially, probe signal summarization, normalization, and background subtraction were performed using Robust Multi-array Averaging (RMA) (24) in affy package with default parameters. Then, the statistical test for differentially expressed genes was performed using Linear Models for Microarray (LIMMA) package (25), which allows for a better variance estimation by calculating the moderated t-statistic using empirical Bayesian techniques. Finally, genes were selected that were statistically significant with P value <0.05 in each biological comparison of interest separately.
Microarray analysis of immunocytes from SLE-afflicted mice. In an attempt to identify gene expression profiles characteristic of SLE and to gain an insight into the modified profile induced by edratide, DNA microarray technology was used on RNA preparations from splenocytes of SLE-afflicted (NZB×NZW)F1 mice treated with edratide or with vehicle only (as described above and in Table 1). […] Three independent in vivo experiments were successfully performed. The RNA obtained in each experiment was hybridized independently on the Affymetrix chips.

[5] = test system: spleen cells of SLE-afflicted (NZB×NZW)F1 mice; experiment: Real-time RT-PCR of spleen cell mRNA from treated mice; assay type: in vivo; settings: normalized to β-actin
Method: Real-time RT-PCR. Messenger RNA (mRNA) was analyzed by quantitative real-time RT-PCR using LightCycler (Roche Diagnostics, Mannheim, Germany). Total RNA was isolated from spleen cells pooled from each treatment group (n=2−4) of (NZB×NZW)F1 mice. To prepare cDNA, RNA was reverse-transcribed using Moloney murine leukemia virus (M-MLV) reverse transcriptase (Promega, Madison, Wis.). The resulting cDNA was subjected to real-time RT-PCR according to the manufacturer's instructions. Briefly, the reaction volume (20 μl) contained 3 mM MgCl2, LightCycler hot start DNA SYBR Green I mix (Roche), specific primer pairs, and 5 μl of cDNA. Conditions for PCR were as follows: 10 minutes at 95° C. followed by 35-50 cycles of 15 seconds at 95° C., 15 seconds at 60° C., and 15 seconds at 72° C. Primer sequences (forward and reverse, respectively) were used as follows:
β-actin levels were used for normalization in calculating the expression levels of all other genes.
Real-time RT-PCR analysis. […] These genes were chosen because they reportedly meet at least one of the following three criteria: involvement in SLE, functioning in lymphocytes, and expression in the kidney.

OX40L = experiment: Immunostaining of kidney sections for OX40L expression; assay type: in vivo; settings: 6 edratide-treated mice; intense staining in all 5 vehicle-treated mice
Method: Immunohistochemistry of kidney sections. Frozen cryostat sections (6 μm) were air-dried and fixed in acetone. For detection of OX40 ligand (OX40L) expression, sections were incubated for 16 hours at room temperature with anti-OX40L monoclonal antibody (M−20; Santa Cruz Biotechnology, Santa Cruz, Calif.). FITC-conjugated mouse anti-goat IgG (Jackson ImmunoResearch Laboratories, West Grove, Pa.) was then added.
Immunostaining of kidneys of (NZB×NZW)F1 mice for OX40L expression. […] Immunohistological analysis of kidney sections from 5 SLE-afflicted vehicle-treated or 6 edratide-treated mice and 3 disease-free young mice was performed.

SLE-afflicted mice = settings: cited from earlier work
[6] = SLE-afflicted mice, reference 5

## GYYWSWIRQPPGKGEEWIG (hCDR (Edratide) synthetic peptide) [synthetic peptide based on the CDR1 of the human monoclonal anti-DNA antibody bearing the common idiotype 16/6Id]
[1]; serum dilution 1:10, mean ± spread
  Anti dsDNA antibodies (OD), Dilution 1:10: 1.46 ± 0.32 OD
[1]; serum dilution 1:250
  Anti dsDNA antibodies (OD), Dilution 1:250: 0.48 ± 0.21 OD
[2]
  Proteinuria: 1.92 ± 0.96 g/L
[3]
  Intensity of ICD (immune-complex deposits): 1.33 ± 0.36
[4]; gene 1190003K14Rik, splenocytes
  Fold difference in expression, edratide-treated (hCDR1) vs SLE mice: 1190003K14Rik: 2.4 fold
[4]; gene 2700022B06Rik, not statistically significant
  Fold difference in expression, edratide-treated vs SLE mice: 2700022B06Rik: −1.4^† fold
[4]; gene 5830484A20Rik, splenocytes, negative = reduction in signal
  Fold difference in expression, edratide-treated vs SLE mice: 5830484A20Rik: −3.0 fold
[4]; gene A130040M12Rik, not statistically significant
  Fold difference in expression, edratide-treated vs SLE mice: A130040M12Rik: 1.3^† fold
[4]; gene Ass1, not statistically significant
  Fold difference in expression, edratide-treated vs SLE mice: Ass1: −1.2^† fold
[4]; gene Camp, splenocytes
  Fold difference in expression, edratide-treated (hCDR1) vs SLE mice: Camp: 2.8 fold
[4]; gene Cd8b1, not statistically significant
  Fold difference in expression, edratide-treated vs SLE mice: Cd8b1: 2.0^† fold
[4]; gene Ctsg, not statistically significant
  Fold difference in expression, edratide-treated (hCDR1) vs SLE mice: Ctsg: 1.2^† fold
[4]; gene Cyp11a1, not statistically significant
  Fold difference in expression, edratide-treated vs SLE mice: Cyp11a1: −1.8^† fold
[4]; gene Dhx9, not statistically significant
  Fold difference in expression, edratide-treated vs SLE mice: Dhx9: −1.0^† fold
[4]; gene Fzd6, splenocytes, negative = reduction in signal
  Fold difference in expression, edratide-treated vs SLE mice: Fzd6: −2.9 fold
[4]; gene Gpr132, not statistically significant
  Fold difference in expression, edratide-treated vs SLE mice: Gpr132: −1.1^† fold
[4]; gene Hdgfrp3, not statistically significant
  Fold difference in expression, edratide-treated vs SLE mice: Hdgfrp3: −1.7^† fold
[4]; gene IL5Rα, splenocytes, negative = reduction in signal
  Fold difference in expression, edratide-treated vs SLE mice: IL5Rα: −2.0 fold
[4]; gene LOC 545340, splenocytes, negative = reduction in signal
  Fold difference in expression, edratide-treated vs SLE mice: LOC 545340: −2.7 fold
[4]; gene Lcn (Lipocalin 2), splenocytes
  Fold difference in expression, edratide-treated (hCDR1) vs SLE mice: Lcn: 2.9 fold
[4]; gene Lmo7, splenocytes, negative = reduction in signal
  Fold difference in expression, edratide-treated vs SLE mice: Lmo7: −2.8 fold
[4]; gene Ltf, splenocytes
  Fold difference in expression, edratide-treated (hCDR1) vs SLE mice: Ltf: 3.2 fold
[4]; gene Mpo, not statistically significant
  Fold difference in expression, edratide-treated (hCDR1) vs SLE mice: Mpo: 1.5^† fold
[4]; gene Ngp, splenocytes
  Fold difference in expression, edratide-treated (hCDR1) vs SLE mice: Ngp: 2.5 fold
[4]; gene Nid1, splenocytes, negative = reduction in signal
  Fold difference in expression, edratide-treated vs SLE mice: Nid1: −2.4 fold
[4]; gene Pigr, not statistically significant
  Fold difference in expression, edratide-treated vs SLE mice: Pigr: −1.4^† fold
[4]; gene Prtn3, not statistically significant
  Fold difference in expression, edratide-treated (hCDR1) vs SLE mice: Prtn3: 1.3^† fold
[4]; gene Pstpip2, entry with SLE fold 2.0, not statistically significant
  Fold difference in expression, edratide-treated vs SLE mice: Pstpip2 (second entry): −1.5^† fold
[4]; gene Pstpip2, entry with SLE fold 2.2, not statistically significant
  Fold difference in expression, edratide-treated vs SLE mice: Pstpip2 (first entry): −1.9^† fold
[4]; gene Rnf184, not statistically significant
  Fold difference in expression, edratide-treated vs SLE mice: Rnf184: 1.2^† fold
[4]; gene S100a8, splenocytes
  Fold difference in expression, edratide-treated (hCDR1) vs SLE mice: S100a8: 2.4 fold
[4]; gene S100a9, splenocytes
  Fold difference in expression, edratide-treated (hCDR1) vs SLE mice: S100a9: 2.4 fold
[4]; gene Slfn (Schlafen 4), splenocytes
  Fold difference in expression, edratide-treated (hCDR1) vs SLE mice: Slfn: 2.7 fold
[4]; gene Tfpi, splenocytes
  Fold difference in expression, edratide-treated (hCDR1) vs SLE mice: Tfpi: 2.2 fold
[4]; gene Thbs1, not statistically significant
  Fold difference in expression, edratide-treated (hCDR1) vs SLE mice: Thbs1: 1.5^† fold
[4]; gene Tnfsf4, splenocytes, negative = reduction in signal
  Fold difference in expression, edratide-treated vs SLE mice: Tnfsf4: −2.5 fold
[4]; gene Zbtb20, splenocytes, negative = reduction in signal
  Fold difference in expression, edratide-treated vs SLE mice: Zbtb20: −2.2 fold
[4]; gene title and symbol Unknown, SLE fold 1.9
  Fold difference in expression, edratide-treated vs SLE mice: Unknown gene: −1.7 fold
[4]; of the 12 identified genes
  Number of genes down-regulated 2-fold or more in diseased mice that were up-regulated after treatment: 9 (75%) genes
[4]; of the 15 genes with an identified product
  Number of genes up-regulated 2-fold or more in SLE-afflicted mice that were significantly down-regulated after treatment: 9 (60%) genes
[4]; of the 348 genes with altered expression in vehicle-treated diseased mice (22%)
  Number of disease-altered genes affected by edratide and restored to levels similar to disease-free controls: 76 genes
[5]; genes down-regulated by the disease, FIG. 2B
  Real-time RT-PCR expression of Tfpi and S100a8 transcripts: up-regulated after edratide treatment to levels similar to those in the young controls
[5]; genes up-regulated by the disease, FIG. 2A
  Real-time RT-PCR expression of Tnfsf4, Il-5rα, Zbtb20 and Nid1 transcripts: reduced the expression of these genes to levels similar to those seen in the young mice
OX40L
  OX40L expression in kidney sections (immunostaining): very weak (in 2 mice and 1 mouse, respectively) or undetectable (in 4 and 2 mice, respectively); also recorded: down-regulated
SLE-afflicted mice; (NZB×NZW)F1 mice, WO 02/067848
  Kidney disease: reduced kidney disease
SLE-afflicted mice; [6]
  Immunosuppressive cytokine TGFβ: up-regulated
  Secretion and expression of pathogenic cytokines (IFNγ, IL-1β, TNFα, IL-10): reduced secretion and expression
